Patent US11596623B2, “Methods for treating virus infection or proliferation” (HOWARD UNIVERSITY, priority 2018, dated 2023)

Biological target: T1, RACK1A Y248 phosphorylation (Arabidopsis thaliana, UniProt O24456)
T1 construct: from tissue; host or cells: Arabidopsis seedlings or plants (wild type); lysates
Experiment: ABA-induced RACK1A Y248 phosphorylation in seedlings, western blot
Type: in vivo
Conditions: 10 μM ABA, 12 hours, one-week old seedlings
Method: One-week old Arabidopsis seedlings were treated with 10 μM of stress hormone Abscisic acid (ABA) in the presence/absence of the inhibitor compounds for 12 hours in a growth chamber (overnight) at 22° C. Lysates were probed with an antibody raised to detect phosphorylated Y248 residue of RACK1A protein in Arabidopsis. Lysates from rack1a-1 knock-out mutant seedlings grown and treated similarly as the wild-type seedlings were used as a negative control. The compounds were dissolved in DMSO (D) and ABA was dissolved in methanol (M).
Proteins were separated by SDS-PAGE (25 μg loaded in each lane), transferred to nitrocellulose membranes (Amersham Inc., Piscataway, N.J., USA), and blocked with 5% nonfat milk for 60 min at room temperature. Membranes were incubated overnight at 4° C. with primary antibody, followed by incubation with a horseradish peroxidase-coupled secondary antibody and detection with enhanced chemiluminescence (Pierce, Rockford, Ill., USA), according to standard methods. Membranes were stripped with stripping buffer (100 mM 2-mercaptoethanol, 2% SDS, 62.5 mM Tris-HCl, pH 6.8), washed with PBS-0.1% Tween-20, and used to detect additional proteins. For Arabidopsis lysates one-week old seedlings were treated with 10 uM of ABA in the presence/absence of the inhibitor compounds for 12 hours in a growth chamber (overnight) at 22° C. mostly in the dark. […]

T1 sequence (O24456 whole entry): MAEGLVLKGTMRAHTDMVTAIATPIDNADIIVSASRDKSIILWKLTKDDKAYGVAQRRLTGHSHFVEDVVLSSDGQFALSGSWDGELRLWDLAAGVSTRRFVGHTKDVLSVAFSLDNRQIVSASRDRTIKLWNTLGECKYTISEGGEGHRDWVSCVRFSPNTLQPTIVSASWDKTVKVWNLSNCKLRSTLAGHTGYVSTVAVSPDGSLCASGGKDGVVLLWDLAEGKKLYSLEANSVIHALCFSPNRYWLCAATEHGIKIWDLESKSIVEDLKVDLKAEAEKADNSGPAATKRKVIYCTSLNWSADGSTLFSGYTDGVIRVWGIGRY

Row | Compound | ABA-induced RACK1A Y248 phosphorylation
1 | Nn1c(S)nnc1-c1ccc(F)cc1 [SD-29] | prevented the ABA-induced Y248 phosphorylation
2 | Nn1c(S)nnc1-c1cc(Cl)cc(Cl)c1 [SD29-14] | prevented the ABA-induced Y248 phosphorylation
